Measured values taken from ChEMBL document CHEMBL4393710, “Discovery of Dioxino[2,3-f]quinazoline derivative VEGFR-2 inhibitors exerting significant antipro-liferative activity in HUVECs and mice” (Eur J Med Chem, 2019).

tested on: HUVEC; assay: Inhibition of VEGF-induced cell proliferation of HUVEC incubated for 72 hrs by CCK8 assay; conditions: Homo sapiens

SMILES	IC50
CC(C)Oc1cc2ncnc(Oc3ccc(NC(=O)Nc4cc(C(F)(F)F)ccc4F)cc3)c2c2c1OCCO2	0.0042 µM
O=C(Nc1ccc(Oc2ncnc3cc(OCCCN4CCOCC4)c4c(c23)OCCO4)cc1)Nc1cc(C(F)(F)F)ccc1F	0.0023 µM
O=C(Nc1ccc(Oc2ncnc3cc(OCCCN4CCOCC4)c4c(c23)OCCO4)cc1F)Nc1cc(C(F)(F)F)ccc1F	0.0047 µM
COc1cc2ncnc(Oc3ccc(NC(=O)Nc4cc(C(F)(F)F)ccc4F)cc3)c2c2c1OCCO2	0.0017 µM
COc1cc2ncnc(Oc3ccc(NC(=O)Nc4ccc(Cl)c(C(F)(F)F)c4)cc3)c2c2c1OCCO2	0.0012 µM
O=C(Nc1ccc(Oc2ncnc3cc(OCCCN4CCOCC4)c4c(c23)OCCO4)c(F)c1)Nc1cc(C(F)(F)F)ccc1F	0.0015 µM
COCCOc1cc2ncnc(Oc3ccc(NC(=O)Nc4cc(C(F)(F)F)ccc4F)cc3)c2c2c1OCCO2	0.0011 µM
COc1cccc(NC(=O)Nc2ccc(Oc3ncnc4cc(OC)c5c(c34)OCCO5)cc2)c1	0.003 µM
O=C(Nc1cc(C(F)(F)F)ccc1F)Nc1ccc(Oc2ncnc3cc(OCCCN4CCOCC4)c4c(c23)OCCO4)cc1Cl	0.004 µM
COc1cc2nccc(Oc3ccc(NC(=O)NC4CC4)c(Cl)c3)c2cc1C(N)=O [LENVATINIB]	0.003 µM

tested on: L02; assay: Antiproliferative activity against human LO2 cells incubated for 72 hrs by CCK8 assay; conditions: L02, 72 h

SMILES	IC50
CC(C)Oc1cc2ncnc(Oc3ccc(NC(=O)Nc4cc(C(F)(F)F)ccc4F)cc3)c2c2c1OCCO2	5.18 µM
O=C(Nc1ccc(Oc2ncnc3cc(OCCCN4CCOCC4)c4c(c23)OCCO4)cc1)Nc1cc(C(F)(F)F)ccc1F	1.01 µM
O=C(Nc1ccc(Oc2ncnc3cc(OCCCN4CCOCC4)c4c(c23)OCCO4)cc1F)Nc1cc(C(F)(F)F)ccc1F	1.51 µM
COc1cc2ncnc(Oc3ccc(NC(=O)Nc4cc(C(F)(F)F)ccc4F)cc3)c2c2c1OCCO2	2.19 µM
COc1cc2ncnc(Oc3ccc(NC(=O)Nc4ccc(Cl)c(C(F)(F)F)c4)cc3)c2c2c1OCCO2	3.85 µM
O=C(Nc1ccc(Oc2ncnc3cc(OCCCN4CCOCC4)c4c(c23)OCCO4)c(F)c1)Nc1cc(C(F)(F)F)ccc1F	0.801 µM
COCCOc1cc2ncnc(Oc3ccc(NC(=O)Nc4cc(C(F)(F)F)ccc4F)cc3)c2c2c1OCCO2	1.16 µM
COc1cccc(NC(=O)Nc2ccc(Oc3ncnc4cc(OC)c5c(c34)OCCO5)cc2)c1	34.3 µM
O=C(Nc1cc(C(F)(F)F)ccc1F)Nc1ccc(Oc2ncnc3cc(OCCCN4CCOCC4)c4c(c23)OCCO4)cc1Cl	5.98 µM

tested on: SMMC-7721; assay: Antitumor activity against human SMMC7721 cells xenografted in nude mouse assessed as tumor growth inhibition at 60 mg/kg, po administered daily for 6 days and measured on day 9 relative to control; format: functional; conditions: SMMC-7721, po, read-out: TGI

SMILES	inhibition in vivo at 60 mg/kg
COc1cc2ncnc(Oc3ccc(NC(=O)Nc4ccc(Cl)c(C(F)(F)F)c4)cc3)c2c2c1OCCO2	118%

tested on: not listed separately; assay: Toxicity in nude mouse xenografted with human SMMC7721 cells assessed as change in body weight at 60 mg/kg, po administered daily for 6 days and measured every 3 days; format: organism-based; conditions: in vivo

SMILES	Activity
COc1cc2ncnc(Oc3ccc(NC(=O)Nc4ccc(Cl)c(C(F)(F)F)c4)cc3)c2c2c1OCCO2	Toxic

tested on: SMMC-7721; assay: Antitumor activity against human SMMC7721 cells xenografted in nude mouse assessed as tumor growth inhibition at 60 mg/kg, po administered daily for 6 days and measured on day 6 relative to control; format: functional; conditions: SMMC-7721, po, 144 h, read-out: TGI

SMILES	inhibition in vivo at 60 mg/kg
COc1cc2ncnc(Oc3ccc(NC(=O)Nc4ccc(Cl)c(C(F)(F)F)c4)cc3)c2c2c1OCCO2	133%

tested on: SMMC-7721; assay: Antitumor activity against human SMMC7721 cells xenografted in nude mouse assessed as tumor volume at 60 mg/kg, po administered daily for 6 days and measured on day 6 (reference value: 1990.2 +/- 179.2 mm3); format: functional; conditions: not given

SMILES	Activity
COc1cc2ncnc(Oc3ccc(NC(=O)Nc4ccc(Cl)c(C(F)(F)F)c4)cc3)c2c2c1OCCO2	14 mm3

tested on: SMMC-7721; assay: Antiproliferative activity against human SMMC7721 cells incubated for 72 hrs by CCK8 assay; format: functional, cell-based; conditions: SMMC-7721, 72 h

SMILES	IC50
COc1cc2ncnc(Oc3ccc(NC(=O)Nc4ccc(Cl)c(C(F)(F)F)c4)cc3)c2c2c1OCCO2	0.376 µM

tested on: not listed separately; assay: Toxicity in nude mouse xenografted with human SMMC7721 cells assessed as side effect at 60 mg/kg, po administered daily for 6 days; format: organism-based; conditions: in vivo, 144 h

SMILES	Activity
COc1cc2ncnc(Oc3ccc(NC(=O)Nc4ccc(Cl)c(C(F)(F)F)c4)cc3)c2c2c1OCCO2	Non-Toxic

tested on: HEK293; assay: Antiproliferative activity against HEK293 cells incubated for 72 hrs by CCK8 assay; conditions: Homo sapiens, HEK293, 72 h

SMILES	IC50
CC(C)Oc1cc2ncnc(Oc3ccc(NC(=O)Nc4cc(C(F)(F)F)ccc4F)cc3)c2c2c1OCCO2	3.56 µM
O=C(Nc1ccc(Oc2ncnc3cc(OCCCN4CCOCC4)c4c(c23)OCCO4)cc1)Nc1cc(C(F)(F)F)ccc1F	0.994 µM
O=C(Nc1ccc(Oc2ncnc3cc(OCCCN4CCOCC4)c4c(c23)OCCO4)cc1F)Nc1cc(C(F)(F)F)ccc1F	1.16 µM
COc1cc2ncnc(Oc3ccc(NC(=O)Nc4cc(C(F)(F)F)ccc4F)cc3)c2c2c1OCCO2	2.88 µM
COc1cc2ncnc(Oc3ccc(NC(=O)Nc4ccc(Cl)c(C(F)(F)F)c4)cc3)c2c2c1OCCO2	7.54 µM
O=C(Nc1ccc(Oc2ncnc3cc(OCCCN4CCOCC4)c4c(c23)OCCO4)c(F)c1)Nc1cc(C(F)(F)F)ccc1F	0.7 µM
COCCOc1cc2ncnc(Oc3ccc(NC(=O)Nc4cc(C(F)(F)F)ccc4F)cc3)c2c2c1OCCO2	0.894 µM
COc1cccc(NC(=O)Nc2ccc(Oc3ncnc4cc(OC)c5c(c34)OCCO5)cc2)c1	> 25 µM
O=C(Nc1cc(C(F)(F)F)ccc1F)Nc1ccc(Oc2ncnc3cc(OCCCN4CCOCC4)c4c(c23)OCCO4)cc1Cl	5.18 µM

tested on: not listed separately; assay: Toxicity in nude mouse xenografted with human SMMC7721 cells assessed as mortality at 60 mg/kg, po administered daily for 6 days; format: organism-based; conditions: in vivo, 144 h

SMILES	Activity
COc1cc2ncnc(Oc3ccc(NC(=O)Nc4ccc(Cl)c(C(F)(F)F)c4)cc3)c2c2c1OCCO2	Non-Toxic

tested on: SMMC-7721; assay: Antitumor activity against human SMMC7721 cells xenografted in nude mouse assessed as tumor volume at 60 mg/kg, po administered daily for 6 days and measured on day 9 (reference value: 3005.8 +/- 225.3 mm3); format: functional; conditions: not given

SMILES	Activity
COc1cc2ncnc(Oc3ccc(NC(=O)Nc4ccc(Cl)c(C(F)(F)F)c4)cc3)c2c2c1OCCO2	63.3 mm3

biological target: Vascular endothelial growth factor receptor 2 (Homo sapiens, UniProt P35968); assay: Inhibition of human N-terminal GST-tagged VEGFR2 cytoplasmic domain (790 to 1356 residues) expressed in baculovirus expression system using Ulight-JAK-1(Tyr1023) peptide as substrate preincubated for 30 mins followed by substrate addition and measured after 60 mins by spectrometric method; conditions: not given
Sequence (P35968 whole entry, the tested form may be a part): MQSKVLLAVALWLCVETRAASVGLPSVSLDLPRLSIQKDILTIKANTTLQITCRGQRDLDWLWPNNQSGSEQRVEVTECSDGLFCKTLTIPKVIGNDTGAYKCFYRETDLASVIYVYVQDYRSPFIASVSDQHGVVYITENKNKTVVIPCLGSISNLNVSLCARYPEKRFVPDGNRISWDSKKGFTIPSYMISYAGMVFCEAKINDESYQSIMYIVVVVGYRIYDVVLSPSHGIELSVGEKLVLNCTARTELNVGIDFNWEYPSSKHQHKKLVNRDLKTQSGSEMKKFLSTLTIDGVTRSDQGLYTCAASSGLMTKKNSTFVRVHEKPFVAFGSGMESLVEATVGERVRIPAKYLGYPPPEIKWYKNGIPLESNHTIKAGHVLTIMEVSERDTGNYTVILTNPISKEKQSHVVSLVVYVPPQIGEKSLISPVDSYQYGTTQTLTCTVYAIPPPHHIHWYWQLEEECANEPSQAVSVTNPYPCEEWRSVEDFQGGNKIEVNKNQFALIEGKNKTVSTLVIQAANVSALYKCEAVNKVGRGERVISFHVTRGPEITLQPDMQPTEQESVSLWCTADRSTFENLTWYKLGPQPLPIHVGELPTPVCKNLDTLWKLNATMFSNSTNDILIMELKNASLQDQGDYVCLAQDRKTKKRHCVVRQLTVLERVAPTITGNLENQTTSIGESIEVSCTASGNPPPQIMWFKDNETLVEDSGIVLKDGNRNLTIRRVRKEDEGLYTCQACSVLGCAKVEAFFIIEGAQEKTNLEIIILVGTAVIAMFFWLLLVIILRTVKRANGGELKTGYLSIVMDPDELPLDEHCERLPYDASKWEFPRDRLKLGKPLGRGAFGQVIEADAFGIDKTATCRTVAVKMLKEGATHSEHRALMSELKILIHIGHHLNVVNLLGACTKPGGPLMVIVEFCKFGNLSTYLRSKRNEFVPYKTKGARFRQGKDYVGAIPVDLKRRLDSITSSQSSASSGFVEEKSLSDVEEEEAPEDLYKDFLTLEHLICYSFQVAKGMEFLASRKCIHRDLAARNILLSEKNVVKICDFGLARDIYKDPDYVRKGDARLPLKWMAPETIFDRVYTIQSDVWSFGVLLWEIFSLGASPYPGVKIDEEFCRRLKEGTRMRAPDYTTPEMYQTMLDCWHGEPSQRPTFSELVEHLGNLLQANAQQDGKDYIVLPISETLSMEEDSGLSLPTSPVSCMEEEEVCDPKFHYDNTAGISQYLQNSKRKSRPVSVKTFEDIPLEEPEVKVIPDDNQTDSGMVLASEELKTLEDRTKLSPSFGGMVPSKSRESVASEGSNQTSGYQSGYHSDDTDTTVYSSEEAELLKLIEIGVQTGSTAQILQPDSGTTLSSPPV

SMILES	IC50
O=C(Nc1ccc(Oc2ncnc3cc(OCCCN4CCOCC4)c4c(c23)OCCO4)cc1)Nc1cc(C(F)(F)F)ccc1F	0.0015 µM
COc1cc2ncnc(Oc3ccc(NC(=O)Nc4cc(C(F)(F)F)ccc4F)cc3)c2c2c1OCCO2	0.0015 µM
COc1cc2ncnc(Oc3ccc(NC(=O)Nc4ccc(Cl)c(C(F)(F)F)c4)cc3)c2c2c1OCCO2	0.0024 µM
O=C(Nc1ccc(Oc2ncnc3cc(OCCCN4CCOCC4)c4c(c23)OCCO4)c(F)c1)Nc1cc(C(F)(F)F)ccc1F	0.0034 µM
COCCOc1cc2ncnc(Oc3ccc(NC(=O)Nc4cc(C(F)(F)F)ccc4F)cc3)c2c2c1OCCO2	0.0017 µM
